Results: patent publication US6127136A, “Detection of dioxin-like compounds by detection of transformed Ah receptor/ARNT complex” (Paracelsian, Inc., priority 1996, dated 2000)

Target: transformed Ah receptor/ARNT complex (Cavia porcellus, UniProt Q6J287)
Assay: Ah-ELISA dose response using an amplified detection system
Type: biochemical, guinea pig (hepatic cytosol)
Design: from tissue; host or cells: hepatic cytosol of male Hartley guinea pigs (animals from Cornell Research Animal Resources)
Conditions: for Average Optical Density: 490 nm, amplified, 28 minutes
Experimental: The reagents and ELISA plate were prepared as described in Example 9 with an amplified detection system. The TCDD concentration was varied tested at 0, 0.016, 0.031, 0.063, 0.125, 0.25, 0.5, 1.0, 2.0, and 4.0 nM.
The amplified detection system used was the alkaline phosphatase/NADP system published by Johannson et al. (J IMM Meth 87: 7-11, 1986). This system is sold as a kit under the trademark Ampak™ by DAKO.
2x enzyme stock was made by dissolving 8 mg alcohol dehydrogenase, 1.4 mg Diaphorase, 133 mg bovine serum albumin in 40 ml AMP buffer (2.3 g 85% HPLC grade phosphoric acid in a total volume of 960 ml water, pH adjusted to 7.2 with 6N NaOH, and 40 ml of ethanol was added to make 1 L). 2x INT stock was made by dissolving 50 mg INT Violet dye in 50 mL AMP buffer.
After washing the plates, 100 μl of NADP stock (0.837 mg in 10 ml of AP buffer (diethanolamine 50 mM, 1 mM MgCl2, 0.1 mM ZnCl2, 15 mM NaN3, pH 9.5)) was added and allowed to incubate at room temperature for 30 minutes. Sensitivity can be increased by increasing amount of NADP or time of incubation. The 2x enzyme stock and 2x INT stock were mixed and 200 μl of the mixture was added per well. The OD was read at 490 nm (usually read at 1 minute intervals for up to 30 minutes). The results are shown below at 28 minutes.

transformed Ah receptor/ARNT complex, sequence (Q6J287 1-846): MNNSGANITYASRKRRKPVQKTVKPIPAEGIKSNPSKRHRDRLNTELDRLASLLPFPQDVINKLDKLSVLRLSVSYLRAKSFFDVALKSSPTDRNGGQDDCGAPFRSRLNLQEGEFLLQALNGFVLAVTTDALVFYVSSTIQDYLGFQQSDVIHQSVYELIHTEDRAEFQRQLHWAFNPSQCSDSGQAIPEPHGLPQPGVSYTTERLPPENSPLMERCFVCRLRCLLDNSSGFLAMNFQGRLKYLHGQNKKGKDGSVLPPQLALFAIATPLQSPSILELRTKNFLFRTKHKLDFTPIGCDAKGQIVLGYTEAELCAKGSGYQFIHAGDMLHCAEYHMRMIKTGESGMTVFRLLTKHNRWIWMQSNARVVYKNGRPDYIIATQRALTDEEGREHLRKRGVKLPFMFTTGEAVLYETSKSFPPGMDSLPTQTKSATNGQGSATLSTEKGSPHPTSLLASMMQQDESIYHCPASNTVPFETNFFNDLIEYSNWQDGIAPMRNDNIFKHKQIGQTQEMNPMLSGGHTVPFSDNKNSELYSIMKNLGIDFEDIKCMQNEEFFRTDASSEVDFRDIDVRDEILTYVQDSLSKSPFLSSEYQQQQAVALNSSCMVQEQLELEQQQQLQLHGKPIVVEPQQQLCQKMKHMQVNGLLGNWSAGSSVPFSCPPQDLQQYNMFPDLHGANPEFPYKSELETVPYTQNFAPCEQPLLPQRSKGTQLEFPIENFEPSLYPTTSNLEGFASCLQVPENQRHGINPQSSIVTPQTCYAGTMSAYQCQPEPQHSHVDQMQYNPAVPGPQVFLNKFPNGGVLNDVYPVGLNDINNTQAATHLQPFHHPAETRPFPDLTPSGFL
transformed Ah receptor/ARNT complex, sequence (Q0WXX3 1-790 partner): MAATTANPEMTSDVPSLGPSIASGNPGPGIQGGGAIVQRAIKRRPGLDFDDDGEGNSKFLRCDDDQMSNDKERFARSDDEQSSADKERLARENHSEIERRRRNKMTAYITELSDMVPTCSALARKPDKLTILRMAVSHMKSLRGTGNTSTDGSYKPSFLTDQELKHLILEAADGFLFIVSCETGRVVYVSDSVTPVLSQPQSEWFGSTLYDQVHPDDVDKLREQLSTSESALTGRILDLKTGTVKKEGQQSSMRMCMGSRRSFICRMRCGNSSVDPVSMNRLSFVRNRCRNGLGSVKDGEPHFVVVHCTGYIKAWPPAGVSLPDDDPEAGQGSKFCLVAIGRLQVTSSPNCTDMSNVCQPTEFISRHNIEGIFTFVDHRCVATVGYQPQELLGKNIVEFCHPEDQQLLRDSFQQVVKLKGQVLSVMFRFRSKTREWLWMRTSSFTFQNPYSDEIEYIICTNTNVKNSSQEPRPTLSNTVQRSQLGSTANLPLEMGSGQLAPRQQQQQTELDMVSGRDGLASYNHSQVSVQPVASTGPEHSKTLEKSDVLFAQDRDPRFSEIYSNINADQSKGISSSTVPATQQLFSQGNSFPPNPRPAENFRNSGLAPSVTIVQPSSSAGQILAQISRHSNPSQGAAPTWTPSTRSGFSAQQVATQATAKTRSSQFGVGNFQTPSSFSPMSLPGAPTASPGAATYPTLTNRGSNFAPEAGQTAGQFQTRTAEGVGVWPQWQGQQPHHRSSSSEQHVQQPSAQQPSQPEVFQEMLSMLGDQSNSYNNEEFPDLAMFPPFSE

Clc1cc2c(cc1Cl)Oc1cc(Cl)c(Cl)cc1O2 [TCDD, 2,3,7,8-tetrachlorodibenzo-p-dioxin]
Average Optical Density (0.016 nM TCDD): 0.203 | Average Optical Density (0.031 nM TCDD): 0.228 | Average Optical Density (0.063 nM TCDD): 0.293 | Average Optical Density (0.125 nM TCDD): 0.414 | Average Optical Density (0.25 nM TCDD): 0.675 | Average Optical Density (0.5 nM TCDD): 1.036 | Average Optical Density (1 nM TCDD): 1.421 | Average Optical Density (2 nM TCDD): 1.803 | Average Optical Density (4 nM TCDD): 1.844 | EC50 (amplified detection, FIG. 7): ~248 pM
